The text below walks through data of patent US5137872A, “Growth hormone-releasing factor analogs” (Pitman-Moore, Inc., priority 1989, dated 1992).

The experiment has as its system serum ovine somatotropin (oST). In words: Serum ovine somatotropin (oST) by RIA after subcutaneous injection of GRF compounds in lambs. The class given is in vivo. Here is the method:
Whether lambs (40-45 kg) were injected subcutaneously with the following GRF compounds in a phosphate buffered saline vehicle (pH 7):
10.0 ug/kg recombinant native hGRF (rhGRF)
5.0 ug/kg synthetic native hGRF (shGRF)
5.0 ug/kg [Pro^0, Gly^15, Met^27 ]-hGRF(1-44)-NH2 (aGRF)
There were 4 animals per treatment group and each treatment was repeated 3 times to give a total of 12 samples/time point/treatment. The animals were bled at time 0, 10, 20, 30, 60 and 120 minutes after injection and analyzed for serum ovine somatotropin (oST) by radioimmunoassay (RIA).
Example 4 was repeated using the following treatments:
20.0 ug/kg recombinant native hGRF (rhGRF)
10.0 ug/kg synthetic native hGRF (shGRF)

Where [1] appears, read: 5.0 ug/kg subcutaneous, FIG. 1 (Example 4).
The mark [2] stands for this setting: 10.0 ug/kg subcutaneous, FIG. 2 (Example 5).

As to [Pro^0, Gly^15, Met^27 ]-hGRF(1-44)-NH2, under setting [1], the “serum oST concentration at 120 minutes post injection versus time 0” value is “oST concentrations greater than those at time 0” and the “duration of in vivo biological activity” value is reported as “prolonged in vivo biological activity”. For the same molecule, under setting [2], the “serum oST concentration at 120 minutes post injection versus time 0” value was “oST concentrations greater than those at time 0” and the “duration of in vivo bioactivity compared to native GRF” value is “prolonged in vivo bioactivity”.

As to `CC[C@H](C)[C@H](NC(=O)[C@H](C)NC(=O)[C@H](CC(=O)O)NC(=O)[C@H](C)NC(=O)[C@@H](N)Cc1ccc(O)cc1)C(=O)N[C@@H](Cc1ccccc1)C(=O)N[C@H](C(=O)N[C@@H](CC(N)=O)C(=O)N[C@@H](CO)C(=O)N[C@@H](Cc1ccc(O)cc1)C(=O)N[C@@H](CCCNC(=N)N)C(=O)N[C@@H](CCCCN)C(=O)N[C@H](C(=O)N[C@@H](CC(C)C)C(=O)NCC(=O)N[C@@H](CCC(N)=O)C(=O)N[C@@H](CC(C)C)C(=O)N[C@@H](CO)C(=O)N[C@@H](C)C(=O)N[C@@H](CCCNC(=N)N)C(=O)N[C@@H](CCCCN)C(=O)N[C@@H](CC(C)C)C(=O)N[C@@H](CC(C)C)C(=O)N[C@@H](CCC(N)=O)C(=O)N[C@@H](CC(=O)O)C(=O)N[C@H](C(=O)N[C@@H](CCSC)C(=O)N[C@@H](CO)C(=O)N[C@@H](CCCNC(=N)N)C(=O)N[C@@H](CCC(N)=O)C(=O)N[C@@H](CCC(N)=O)C(=O)NCC(=O)N[C@@H](CCC(=O)O)C(=O)N[C@@H](CO)C(=O)N[C@@H](CC(N)=O)C(=O)N[C@@H](CCC(N)=O)C(=O)N[C@@H](CCC(=O)O)C(=O)N[C@@H](CCCNC(=N)N)C(=O)NCC(=O)N[C@@H](C)C(=O)N[C@@H](CCCNC(=N)N)C(=O)N[C@@H](C)C(=O)N[C@@H](CCCNC(=N)N)C(=O)N[C@@H](CC(C)C)C(N)=O)[C@@H](C)CC)C(C)C)[C@@H](C)O` [native synthetic hGRF, reference compound], the “serum oST concentration at 120 minutes post injection versus time 0” value is “returned to baseline serum oST levels” under setting [1] and “returned to baseline serum oST levels” under setting [2].
